In assay [1] the target is T1, PDE3A catalytic domain (PDE3Acat) (Homo sapiens, UniProt Q14432).
T1 construct: cDNA fragments of PDE3A catalytic domain (indicated as “cat,” hereinafter); made in house; host or cells: Sf9 insect cells (baculovirus, Bac-to-Bac)
Briefly: Inhibition of phosphodiesterase activity, [3H]-cAMP hydrolysis, recombinant PDE3Acat. In kind it is biochemical. The note with it: human recombinant PDE3Acat, cAMP 2 μmol/L; read-out: IC50(μmol/L) PDE3. The method, then:
(§1) RT-PCR was performed to isolate cDNA fragments of PDE3A catalytic domain (indicated as “cat,” hereinafter), PDE4Bcat, PDE5Acat and PDE10A1 from human RNA. Using Gateway system (Invitrogen) and Bac-to-Bac (registered trademark) Baculovirus Expression system (Invitrogen), the isolated cDNA fragments were transfected into Sf9 insect cells for expression of the PDE proteins. The recombinant PDE3Acat, PDE4Bcat, PDE5Acat and PDE10A1 proteins were isolated from culture supernatant or cell extracts of Sf9 cells expressed high levels of these proteins by ion-exchange chromatography and used for the following experiments.
(§2) 4 mmol/L solution of each test compound was serially diluted 4-fold with 15% DMSO solution to prepare the solutions with concentrations of 15 nmol/L to 4 mmol/L (final concentrations=1.5 nmol/L-400 μmol/L). 10 μL of each test compound solution was added to each well of 96 plate with 10 μL of [^3H]-cAMP or [^3H]-cGMP solution, diluted with a buffer (40 mmol/L Tris-HCl (pH 7.4), 10 mmol/L MgCl2) to the concentration shown in Table 20 and 40 μL of each of the human recombinant PDE proteins in units shown in Table 20. The plate was incubated at 30° C. for 20 min, and then at 65° C. for 2 min. Subsequently, 25 μL of 1 mg/mL 5′-nucleotidase (Crotalus atrox venom, Sigma) was added to each well and the plate was incubated at 30° C. for 10 min. 200 μL of Dowex solution (300 mg/mL Dowex 1×8-400 (Sigma Aldrich), 33% ethanol) was then added to each well and the plate was shaken at 4° C. for 20 min. Subsequently, 200 μL of MicroScint 20 (Packard) was added to each well and the radioactivity of each sample was measured by a scintillation counter (Topcount, Packard) IC50 was calculated by GraphPad Prism v3.03 (GraphPad Software).

In another assay the target is T2, PDE4Bcat (Homo sapiens, UniProt Q07343).
T2 construct: catalytic domain (indicated as “cat,” hereinafter), PDE4Bcat; made in house; host or cells: Sf9 insect cells (baculovirus, Bac-to-Bac)
Briefly: Inhibition of phosphodiesterase activity, [3H]-cAMP hydrolysis, recombinant PDE4Bcat. It is filed as biochemical. The note with it: cAMP 2 μmol/L, read-out: IC50(μmol/L) PDE4. Here is the method: as §1, §2

Assay [2] deals with histamine-induced bronchoconstriction. Briefly: Histamine-induced bronchoconstriction in guinea pigs. It is filed as in vivo, guinea pig. The note with it: Cavia porcellus, iv, 0.5 min, 30 seconds after administration, histamine 12.5 μg/kg i.v.; for inhibition in vivo at 0.1 mg/kg: values in brackets: test compound 0.1 mg/kg, i.v.; for inhibition in vivo at 1 mg/kg: test compound 1 mg/kg i.v. The method, then:
Guinea pigs were anesthetized with pentobarbital (30 mg/kg, i.p.). A cannula for IV administeration, a cannula for collecting blood and measurement of blood pressure and a trachea cannula were inserted into the left exterior jugular vein, right interior carotid artery and trachea, respectively. The animals were placed under artificial respiration at 60 times/min and 10 mL/kg/stroke. The airflow through the branch of the tracheal cannula was measured by a bronchospasm transducer (Ugo-Basile) and recorded on a computer via Power Lab (ADInstruments Japan). The animals were immobilized with gallamine (10 mg/kg, i.v.), then administered histamine at 10-minute intervals (12.5 μg/kg, i.v.). […] To examine the inhibitory activity of test compound, the histamine-induced bronchoconstriction was measured after 30 seconds of drug administration. The bronchoconstriction was recorded as the change of the airflow: The results were shown by percentages of the maximum histamine-induced bronchoconstriction. Each test compound was prepared as a 10 mg/mL solution in DMSO. Gallamine was prepared as a 10 mg/mL solution in physiological saline. Histamine was prepared as a 1 mg/mL solution in physiological saline, which was diluted with physiological saline to 62.5 μg/mL for use.

T2 sequence (Q07343 330-659 limits assumed): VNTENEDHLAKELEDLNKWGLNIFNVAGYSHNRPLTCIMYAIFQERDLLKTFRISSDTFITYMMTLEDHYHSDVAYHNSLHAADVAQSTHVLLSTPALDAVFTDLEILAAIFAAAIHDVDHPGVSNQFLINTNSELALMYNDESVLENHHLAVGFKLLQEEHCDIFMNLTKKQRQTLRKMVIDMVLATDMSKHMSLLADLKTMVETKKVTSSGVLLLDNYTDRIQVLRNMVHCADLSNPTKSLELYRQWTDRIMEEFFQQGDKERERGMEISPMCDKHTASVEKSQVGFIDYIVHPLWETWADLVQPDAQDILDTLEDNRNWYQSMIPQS
T1 sequence (Q14432 674-1093 limits assumed): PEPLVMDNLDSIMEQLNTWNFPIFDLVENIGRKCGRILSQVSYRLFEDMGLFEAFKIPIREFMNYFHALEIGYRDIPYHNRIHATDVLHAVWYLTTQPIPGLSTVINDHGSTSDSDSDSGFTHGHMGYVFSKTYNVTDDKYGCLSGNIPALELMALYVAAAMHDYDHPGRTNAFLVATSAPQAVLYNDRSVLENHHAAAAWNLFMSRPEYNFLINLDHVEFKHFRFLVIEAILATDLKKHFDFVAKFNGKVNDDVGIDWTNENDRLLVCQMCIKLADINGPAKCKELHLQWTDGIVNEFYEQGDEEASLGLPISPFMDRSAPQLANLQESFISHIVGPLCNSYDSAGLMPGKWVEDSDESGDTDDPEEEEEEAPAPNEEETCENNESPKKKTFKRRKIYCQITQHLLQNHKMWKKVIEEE

`COc1ccc(-c2n[nH]c(=O)cc2C)c2c(F)c(C(C)C)nn12` [Example 279, 6-(3-fluoro-7-methoxy-2-isopropyl-pyrazolo[1,5-a]pyridine-4-yl)-5-methyl-3-(2H)-pyridazinone]: the IC50 in assay [1] is more than 10 µmol/L; on PDE4Bcat, 0.1 to 1 µmol/L.
The like results for `COc1ccc(C2=NNC(=O)CC2C)c2cc(CF)nn12` (stereo not drawn) [Example 236, 6-(2-fluoromethyl-7-methoxy-pyrazolo[1,5-a]pyridine-4-yl)-4,5-dihydro-5-methyl-3-(2H)-pyridazinone] were, in that order, 1 to 10 µmol/L and 0.1 to 1 µmol/L.
For orientation: inhibition in vivo means the percentage by which the read-out fell short of the control. In the case of `COc1ccc(-c2ccc(=O)[nH]n2)c2cc(C(F)(F)F)nn12` [Example 302, 6-(2-trifluoromethyl-7-methoxy-pyrazolo[1,5-a]pyridine-4-yl)-3-(2H)-pyridazinone], the IC50 in assay [1] fell in the range of 1 to 10 µmol/L; on PDE4Bcat, 0.1 to 1 µmol/L. The molecule further yielded an inhibition in vivo at 0.1 mg/kg in assay [2] not below 90%.
As to `CCOC(=O)c1ccc(C2=NNC(=O)CC2C)c2cc(CC)nn12` (stereo not drawn) [Example 204], the IC50 (in assay [1]; at PDE4Bcat) was 1 to 10 µmol/L throughout.
With `CCc1nn2c(S(C)(=O)=O)ccc(C3=NNC(=O)CC3C)c2c1O` (stereo not drawn) [Example 252], the IC50 (in assay [1]; at PDE4Bcat) was 1 to 10 µmol/L in each case.
Take `COCc1cc2c(C3=NNC(=O)CC3C)ccc(OC)n2n1` (stereo not drawn) [Example 220]: the IC50 was 1 to 10 µmol/L in assay [1] and 0.1 to 1 µmol/L on PDE4Bcat. The molecule also showed an inhibition in vivo at 0.1 mg/kg in assay [2] not below 90%.
Regarding `CCc1cc2c(C3=NNC(=O)CC3C)ccc(-c3ccccc3)n2n1` (stereo not drawn) [Example 229], the IC50 (in assay [1]; on PDE4Bcat) was 1 to 10 µmol/L in each case.
Turning to `COc1ccc(C2=NNC(=O)CC2C)c2cc(C(C)=O)nn12` (stereo not drawn) [Example 241, 6-(2-acetyl-7-methoxy-pyrazolo[1,5-a]pyridine-4-yl)-4,5-dihydro-5-methyl-3-(2H)-pyridazinone], the IC50 in assay [1] was 1 to 10 µmol/L; on PDE4Bcat it was less than 1 µmol/L. In addition, the inhibition in vivo at 0.1 mg/kg in assay [2] is not below 90%.
On to `COc1ccc(-c2ccc(=O)n(Cc3ccccn3)n2)c2cc(C(C)C)nn12` [Example 274], for which the IC50 in assay [1] was more than 10 µmol/L; on PDE4Bcat, 0.1 to 1 µmol/L.
On the same counts, the results for `COc1ccc(-c2n[nH]c(=O)cc2C)c2cc(C(F)(F)F)nn12` [Example 303] are more than 10 µmol/L and 1 to 10 µmol/L.
As for `CCc1cc2c(C3=NNC(=O)CC3C)ccc(SC)n2n1` (stereo not drawn) [Example 223], the IC50 in assay [1] fell in the range of 1 to 10 µmol/L; on PDE4Bcat it was 0.1 to 1 µmol/L. For the same molecule, in assay [2], the inhibition in vivo at 0.1 mg/kg was not below 90%.
On the same counts, the results for `COc1ccc(C2=NNC(=O)CC2)c2cc(C(F)(F)F)nn12` [Example 209, 6-(7-methoxy-2-trifluoromethyl-pyrazolo[1,5-a]pyridine-4-yl)-4,5-dihydro-3-(2H)-pyridazinone] are more than 10 µmol/L, 0.1 to 1 µmol/L and 80 to 90%.
For the molecule `COc1ccc(C2=NNC(=O)CC2C)c2cc(SC)nn12` (stereo not drawn) [Example 219], the IC50 on PDE4Bcat was in the range of 0.1 to 1 µmol/L. For the same molecule, the inhibition in vivo at 0.1 mg/kg in assay [2] was not below 90%.
On to `CCc1cc2c(C3=NN(Cc4cccnc4)C(=O)CC3C)cc(F)cn2n1` (stereo not drawn) [Example 287, 6-(2-ethyl-6-fluoro-pyrazolo[1,5-a]pyridine-4-yl)-4,5-dihydro-5-methyl-2-(pyridine-3-ylmethyl)-3-(2H)-pyridazinone], for which the IC50 in assay [1] was more than 10 µmol/L; at PDE4Bcat it was 1 to 10 µmol/L.
Take `CCc1nn2c(OC)ccc(C3=NNC(=O)CC3C)c2c1Cl` (stereo not drawn) [Example 213]: the IC50 in assay [1] was more than 10 µmol/L; on PDE4Bcat, 0.1 to 1 µmol/L. The molecule also returned an inhibition in vivo at 1 mg/kg in assay [2] of 70 to 80%.
Regarding `CCc1nn2c([S+](C)[O-])ccc(C3=NNC(=O)CC3C)c2c1O` (stereo not drawn) [Example 250], the IC50 was 1 to 10 µmol/L in assay [1] and 0.1 to 1 µmol/L on PDE4Bcat. The molecule further showed an inhibition in vivo at 0.1 mg/kg in assay [2] not below 90%.
For `CCc1nn2cc(Cl)cc(C3=NNC(=O)CC3C)c2c1Cl` (stereo not drawn) [Example 203], the values for the IC50 (in assay [1]; at PDE4Bcat) were more than 10 µmol/L and 0.1 to 1 µmol/L, respectively. For the same molecule, in assay [2], the inhibition in vivo at 1 mg/kg lay in the range of 70 to 80%.
As for `COc1ccc(-c2cc(C)c(=O)n(Cc3cccnc3)n2)c2cc(C(C)C)nn12` [Example 299], the results for the IC50 (in assay [1]; on PDE4Bcat) were more than 10 µmol/L and less than 1 µmol/L, respectively.
The like results for `COc1ccc(-c2ccc(=O)n(Cc3ccncc3)n2)c2cc(C(C)C)nn12` [Example 275] were, in that order, more than 10 µmol/L and 1 to 10 µmol/L.
Turning to `CCCc1cc2c(C3=NNC(=O)CC3C)ccc(OC)n2n1` (stereo not drawn) [Example 217], the IC50 lay in the range of 1 to 10 µmol/L in assay [1] and 0.1 to 1 µmol/L on PDE4Bcat. This molecule came in with an inhibition in vivo at 0.1 mg/kg in assay [2] not below 90%.
On to `CCc1cc2c(C3=NNC(=O)CC3C)ccc([S+](C)[O-])n2n1` (stereo not drawn) [Example 249, 6-(2-ethyl-7-methylsulfinyl-pyrazolo[1,5-a]pyridine-4-yl)-4,5-dihydro-5-methyl-3-(2H)-pyridazinone], for which the values for the IC50 (in assay [1]; on PDE4Bcat) were 1 to 10 µmol/L and less than 1 µmol/L, respectively. In assay [2], the inhibition in vivo at 0.1 mg/kg was not below 90%.
The like results for `CCc1cc2c(C3=NNC(=O)CC3C)ccc(NC)n2n1` (stereo not drawn) [Example 225] were, in that order, 1 to 10 µmol/L, less than 1 µmol/L and 80 to 90%.
With `CCOc1ccc(C2=NNC(=O)CC2C)c2cc(CC)nn12` (stereo not drawn) [Example 244, 6-(7-ethoxy-2-ethyl-pyrazolo[1,5-a]pyridine-4-yl)-4,5-dihydro-5-methyl-3-(2H)-pyridazinone], the IC50 (in assay [1]; on PDE4Bcat) was 1 to 10 µmol/L each time.
Turning to `COc1ccc(C2=NNC(=O)CC2C)c2cc(C(C)O)nn12` (stereo not drawn) [Example 238, 6-[2-(1-hydroxyethyl)-7-methoxy-pyrazolo[1,5-a]pyridine-4-yl]-4,5-dihydro-5-methyl-3-(2H)-pyridazinone], the IC50 in assay [1] is 1 to 10 µmol/L; on PDE4Bcat it was less than 1 µmol/L.
The like results for `CCc1cc2c(C3=NNC(=O)CC3C)ccc(N(C)C)n2n1` (stereo not drawn) [Example 224] were, in that order, 1 to 10 µmol/L and 0.1 to 1 µmol/L.
For `COc1ccc(C2=NNC(=O)CC2C)c2cc(CO)nn12` (stereo not drawn) [Example 221], the IC50 (in assay [1]; at PDE4Bcat) was 1 to 10 µmol/L throughout.
Regarding `CCC1CC(=O)NN=C1c1ccc(OC)n2nc(C(F)(F)F)cc12` (stereo not drawn) [Example 212], the IC50 in assay [1] is more than 10 µmol/L; on PDE4Bcat, less than 1 µmol/L.
For `CCc1cc2c(C3=NNC(=O)CC3C)ccc(N3CCOCC3)n2n1` (stereo not drawn) [Example 226], the IC50 in assay [1] was 1 to 10 µmol/L; at PDE4Bcat it was more than 10 µmol/L.
The like results for `CCc1cc2c(C3=NNC(=O)CC3C)ccc(NC(C)=O)n2n1` (stereo not drawn) [Example 228] were, in that order, 1 to 10 µmol/L and more than 10 µmol/L.
Turning to `COc1ccc(-c2nn(C)c(=O)cc2C)c2cc(C(C)C)nn12` [Example 297], the IC50 in assay [1] is more than 10 µmol/L; on PDE4Bcat it was less than 1 µmol/L.
On the same counts, the results for `CCc1cc2c(C3=NNC(=O)CC3C)ccc(S(C)(=O)=O)n2n1` (stereo not drawn) [Example 251, 6-(2-ethyl-7-methylsulfonyl-pyrazolo[1,5-a]pyridine-4-yl)-4,5-dihydro-5-methyl-3-(2H)-pyridazinone] are 1 to 10 µmol/L and 1 to 10 µmol/L.
The molecule `C=Cc1cc2c(C3=NNC(=O)CC3C)ccc(OC)n2n1` (stereo not drawn) [Example 239, 6-(7-methoxy-2-vinyl-pyrazolo[1,5-a]pyridine-4-yl)-4,5-dihydro-5-methyl-3-(2H)-pyridazinone] yielded an inhibition in vivo at 0.1 mg/kg in assay [2] not below 90%.
As for `CCc1cc2c(C3=NNC(=O)CC3C)ccc(C(C)=O)n2n1` (stereo not drawn) [Example 235, 6-(7-acetyl-2-ethyl-pyrazolo[1,5-a]pyridine-4-yl)-4,5-dihydro-5-methyl-3-(2H)-pyridazinone], the inhibition in vivo at 0.1 mg/kg in assay [2] was not below 90%.

The values are drawn from US7763617B2, “Pyrazolopyridine-4-yl pyridazinone derivatives and addition salts thereof, and PDE inhibitors comprising the same derivatives or salts as active ingredient” (Kyorin Pharmaceutical Co., Ltd., priority 2005, dated 2010).
